{"source": "paper PMC7754465", "about": "“Multiparameter Kinetic Analysis for Covalent Fragment Optimization by Using Quantitative Irreversible Tethering (qIT)” (Chembiochem, 2020)", "experiment": "qIT: rate of reaction with glutathione (intrinsic reactivity)", "assay_type": "physicochemical", "settings": "fragment 0.5 mM, glutathione 5 μM", "protocol": "Previously we described a fluorescence‐based platform for screening cysteine‐targeting covalent fragments called quantitative irreversible tethering (qIT). ^[19] The method measures and compares the rate of reactions of individual fragments with the protein‐of‐interest (POI) and GSH (Figure 2a and b).\nFigure 2 Comparison of previous and current applications of Quantitative irreversible tethering (qIT). a) Overview of rate determination. A cysteine‐containing biomolecule is treated with covalent fragments under pseudo‐first‐order conditions. Reaction progress is followed by discrete measurement of free cysteine concentration by using the fluorogenic probe CPM, and rate constants (k obs) are derived from exponential regression analysis. b) Comparison of the reactivity profile of each fragment with the POI and GSH typically classes them as unreactive, reactive but non‐selective or reactive and selective. c) Quantification of kinetic POI/GSH selectivity facilitates hit identification. d) The observed rate of reaction between the POI and hit fragment is determined at a range of ligand concentrations by using qIT. Subsequent hyperbolic regression analysis is used to derive K i and k inact to facilitate comprehensive covSAR analysis. […]", "data": [{"smiles": "C=CC(=O)N1CCCc2cc(C(=O)OC)ccc21", "note": "[compound 1]", "values": [{"measurement": "GSH: kobs/[I]", "result": 0.02, "unit": "M⁻¹ s⁻¹"}]}]}
